Test results taken from patent US20160304466A1, “NOVEL COMPOUNDS AS JNK KINASE INHIBITORS” (THE SCRIPPS RESEARCH INSTITUTE, priority 2013, published 2016).

Tests used:
JNK2α2/SAPK1c, active = JNK2α2/SAPK1c, active (Homo sapiens, UniProt P45984); assay: Biochemical inhibition of JNK2; conditions: Table 1, compounds of formula (I); mean of n repeats
Description: A 10 point titration of all compounds was carried out in 3-fold dilutions from 10 pM-2000 nM. After 22 min, the kinase reaction was terminated by addition of 10 μl of quenching solution [50 mM Hepes, pH 7.0, with 14 mM EDTA, 0.01% Triton X-100, 400 mM KF (all from Sigma-Aldrich)]. The detection reagents, streptavidin-x1APC (200 nM) and europium cryptate-labeled rabbit polyclonal anti-phospho-ATF2 (1 nM), were from Cis-Bio. The HTRF signal was detected using an Envision plate reader (Perkin Elmer) 1 h post-quenching. The data from multiple different experiments were averaged and presented as the mean±standard deviation.

JNK1α1/SAP1α, Active = JNK1α1/SAP1α, Active (Homo sapiens, UniProt P45983); assay: Biochemical inhibition of JNK1; conditions: for EC50: Table 1, compounds of formula (I), mean of n repeats; for IC50: Table 2, compounds of formula (II), read-out: JNK1 (nM) JNK activity (IC50)
Sequence of JNK1α1/SAP1α, Active (P45983 1-384 isoform P45983-2): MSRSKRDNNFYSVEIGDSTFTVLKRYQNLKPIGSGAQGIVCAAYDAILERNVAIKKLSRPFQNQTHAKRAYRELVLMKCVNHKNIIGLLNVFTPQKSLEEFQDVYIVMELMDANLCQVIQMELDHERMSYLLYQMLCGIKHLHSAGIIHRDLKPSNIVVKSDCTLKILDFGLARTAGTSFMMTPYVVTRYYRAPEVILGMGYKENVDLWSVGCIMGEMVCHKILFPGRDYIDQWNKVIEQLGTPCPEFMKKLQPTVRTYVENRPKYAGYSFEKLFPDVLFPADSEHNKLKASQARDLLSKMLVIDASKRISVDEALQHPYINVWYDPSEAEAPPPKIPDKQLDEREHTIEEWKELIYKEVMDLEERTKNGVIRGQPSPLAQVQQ

[1] = molecular target: JNK3/SAPK1b, Active (activated JNK3α1) (Homo sapiens, UniProt P53779); assay: Biochemical inhibition of JNK3 (HTRF enzyme inhibition assay); conditions: for EC50: Table 1, compounds of formula (I), mean of n repeats; for IC50: Table 2, compounds of formula (II), read-out: JNK3 (nM) JNK activity (IC50)
Sequence of JNK3/SAPK1b, Active (activated JNK3α1) (P53779 1-422 isoform P53779-2): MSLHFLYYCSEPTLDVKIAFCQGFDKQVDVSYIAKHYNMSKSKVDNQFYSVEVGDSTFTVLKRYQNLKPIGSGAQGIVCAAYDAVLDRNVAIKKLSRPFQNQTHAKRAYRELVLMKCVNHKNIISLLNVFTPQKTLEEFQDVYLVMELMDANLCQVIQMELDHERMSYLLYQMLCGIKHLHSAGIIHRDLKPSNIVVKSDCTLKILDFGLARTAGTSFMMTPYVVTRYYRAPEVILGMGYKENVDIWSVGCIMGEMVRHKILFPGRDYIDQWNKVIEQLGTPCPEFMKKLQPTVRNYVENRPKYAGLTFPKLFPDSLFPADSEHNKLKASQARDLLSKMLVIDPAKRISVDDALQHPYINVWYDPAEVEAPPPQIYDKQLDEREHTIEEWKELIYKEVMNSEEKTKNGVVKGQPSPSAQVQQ
Description: Enzyme inhibition studies were performed in 384-well polystyrene HTRF plates (Grainier) for 22 min at ambient temperature (˜22° C.) with 0.2 μM biotinylated FL-ATF2, 1 μM ATP, 0.75 nM activated JNK3α1 (with a control in the absence of kinase for determining the basal signal) in 10 μL volumes containing the final concentrations of the following: 50 mM Hepes, pH 7.0, 2.5 mM MgCl2, 0.1 mg/ml bovine serum albumin, 1 mM DL-dithiothreitol, 0.01% Triton X-100 (all from Sigma-Aldrich), and 5% DMSO (with or without compound). A 10 point titration of all compounds was carried out in 3-fold dilutions from 10 pM-2000 nM. After 22 min, the kinase reaction was terminated by addition of 10 μl of quenching solution [50 mM Hepes, pH 7.0, with 14 mM EDTA, 0.01% Triton X-100, 400 mM KF (all from Sigma-Aldrich)]. The detection reagents, streptavidin-x1APC (200 nM) and europium cryptate-labeled rabbit polyclonal anti-phospho-ATF2 (1 nM), were from Cis-Bio. The HTRF signal was detected using an Envision plate reader (Perkin Elmer) 1 h post-quenching. The data from multiple different experiments were averaged and presented as the mean±standard deviation. IC50 values were determined by fitting the data to the equation for a four-parameter logistic. p38 enzyme inhibition assays were performed identically to the JNK3 assays with the exception that the reaction time was […], 0.5 μM biotinylated FL-ATF2, ATP=11 μM, and p38 (Millipore)=3 nM.

Sequence of JNK2α2/SAPK1c, active (P45984 whole entry): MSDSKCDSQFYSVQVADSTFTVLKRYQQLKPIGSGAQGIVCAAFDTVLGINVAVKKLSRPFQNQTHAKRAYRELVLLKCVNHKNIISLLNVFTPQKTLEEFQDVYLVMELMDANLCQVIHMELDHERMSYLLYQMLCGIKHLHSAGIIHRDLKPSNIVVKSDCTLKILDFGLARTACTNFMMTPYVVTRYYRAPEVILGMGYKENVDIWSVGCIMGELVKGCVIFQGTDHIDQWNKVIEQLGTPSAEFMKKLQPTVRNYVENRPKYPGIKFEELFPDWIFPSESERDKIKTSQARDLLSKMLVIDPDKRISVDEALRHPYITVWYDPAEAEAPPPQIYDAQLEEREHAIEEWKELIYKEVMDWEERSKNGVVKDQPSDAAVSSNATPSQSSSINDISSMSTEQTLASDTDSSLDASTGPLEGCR

For Cc1ccc(CNC(=O)c2cccc(-n3cc(NC(=O)Nc4ccccc4Cl)cn3)c2)cn1 [Example I-9, 3-(4-(3-(2-chlorophenyl)ureido)-1H-pyrazol-1-yl)-N-((6-methylpyridin-3-yl)methyl)benzamide], the EC50 (JNK2α2/SAPK1c, active) was 200 to 1000 nM, the EC50 (JNK1α1/SAP1α, Active) was greater than 1000 nM and the EC50 [1] was 200 to 1000 nM.

Work on Cc1cc(NC(=O)c2cccc(-n3cc(NC(=O)Nc4ccccc4Cl)cn3)c2)ccn1 [Example I-10, 3-(4-(3-(2-chlorophenyl)ureido)-1H-pyrazol-1-yl)-N-(2-methylpyridin-4-yl)benzamide] yielded an EC50 (JNK2α2/SAPK1c, active) of less than 200 nM, an EC50 (JNK1α1/SAP1α, Active) greater than 1000 nM and an EC50 [1] of less than 200 nM.

Cc1cccc(CNC(=O)c2cccc(-n3cc(NC(=O)Nc4ccccc4Cl)cn3)c2)n1 [Example I-11, 3-(4-(3-(2-chlorophenyl)ureido)-1H-pyrazol-1-yl)-N-((6-methylpyridin-2-yl)methyl)benzamide] gave an EC50 (JNK2α2/SAPK1c, active) of 200 to 1000 nM, an EC50 (JNK1α1/SAP1α, Active) greater than 1000 nM and an EC50 [1] of 200 to 1000 nM.

Cc1cc(NC(=O)c2cccc(-n3cc(NC(=O)Nc4ccccc4Cl)cn3)c2)cc(C)n1 [Example I-22, 3-(4-(3-(2-chlorophenyl)ureido)-1H-pyrazol-1-yl)-N-(2,6-dimethylpyridin-4-yl)benzamide] showed an EC50 (JNK2α2/SAPK1c, active) of 200 to 1000 nM, an EC50 (JNK1α1/SAP1α, Active) greater than 1000 nM and an EC50 [1] of less than 200 nM.

Cc1cc(NC(=O)c2cccc(-n3cc(NC(=O)Nc4ccccc4C)cn3)c2)ccn1 [Example I-51, N-(2-methylpyridin-4-yl)-3-(4-(3-(o-tolyl)ureido)-1H-pyrazol-1-yl)benzamide] gave an EC50 (JNK2α2/SAPK1c, active) of less than 200 nM, an EC50 (JNK1α1/SAP1α, Active) of 200 to 1000 nM and an EC50 [1] of less than 200 nM.

In the case of CC(C)n1cc(NC(=O)c2cccc(-n3cc(NC(=O)Nc4ccccc4Cl)cn3)c2)cn1 [Example I-86, 3-(4-(3-(2-chlorophenyl)ureido)-1H-pyrazol-1-yl)-N-(1-isopropyl-1H-pyrazol-4-yl)benzamide], the EC50 (JNK2α2/SAPK1c, active) is reported as 200 to 1000 nM, the EC50 (JNK1α1/SAP1α, Active) is reported as greater than 1000 nM and the EC50 [1] is reported as less than 200 nM.

For Cn1nc(C2CC2)cc1NC(=O)c1cccc(-n2cc(NC(=O)Nc3ccccc3Cl)cn2)c1 [Example I-89, 3-(4-(3-(2-chlorophenyl)ureido)-1H-pyrazol-1-yl)-N-(3-cyclopropyl-1-methyl-1 H-pyrazol-5-yl)benzamide], the EC50 (JNK2α2/SAPK1c, active) was less than 200 nM, the EC50 (JNK1α1/SAP1α, Active) was greater than 1000 nM and the EC50 [1] was less than 200 nM.

In the case of Cn1ccc(NC(=O)c2cccc(-n3cc(NC(=O)Nc4ccccc4Cl)cn3)c2)n1 [Example I-98, 3-(4-(3-(2-chlorophenyl)ureido)-1H-pyrazol-1-yl)-N-(1-methyl-1H-pyrazol-3-yl)benzamide], the EC50 (JNK2α2/SAPK1c, active) is reported as less than 200 nM, the EC50 (JNK1α1/SAP1α, Active) is reported as 200 to 1000 nM and the EC50 [1] is reported as less than 200 nM.

Compound O=C(Nc1cnn(-c2cccc(C(=O)Nc3cnn(CCN4CCCC4)c3)c2)c1)Nc1ccccc1Cl [Example I-101, 3-(4-(3-(2-chlorophenyl)ureido)-1H-pyrazol-1-yl)-N-(1-(2-(pyrrolidin-1-yl)ethyl)-1H-pyrazol-4-yl)benzamide] has an EC50 (JNK2α2/SAPK1c, active) of less than 200 nM, an EC50 (JNK1α1/SAP1α, Active) greater than 1000 nM and an EC50 [1] of less than 200 nM.

Cc1nn(CCN2CCCC2)cc1NC(=O)c1cccc(-n2cc(NC(=O)Nc3ccccc3Cl)cn2)c1 [Example I-104, 3-(4-(3-(2-chlorophenyl)ureido)-1H-pyrazol-1-yl)-N-(3-methyl-1-(2-(pyrrolidin-1-yl)ethyl)-1H-pyrazol-4-yl)benzamide] showed an EC50 (JNK2α2/SAPK1c, active) of less than 200 nM, an EC50 (JNK1α1/SAP1α, Active) greater than 1000 nM and an EC50 [1] of less than 200 nM.

Compound CC(C)n1c(=O)ccc2cnc(NC3CCN(Cc4ccccc4)CC3)nc21 [Example II-6, 2-(1-Benzyl-piperidin-4-ylamino)-8-isopropyl-8H-pyrido[2,3-d]pyrimidin-7-one] has an IC50 (JNK1α1/SAP1α, Active) of 200 to 1000 nM and an IC50 [1] greater than 1000 nM.

Work on O=c1ccc2cnc(N[C@H]3CC[C@H](O)CC3)nc2n1C1CCCC1 [Example II-20, Trans-8-Cyclopentyl-2-(4-hydroxy-cyclohexylamino)-8H-pyrido[2,3-d]pyrimidin-7-one] yielded an IC50 (JNK1α1/SAP1α, Active) of less than 200 nM and an IC50 [1] of less than 200 nM.

CC(C)NC(=O)N1CCC(Nc2ncc3ccc(=O)n(C4CCCC4)c3n2)CC1 [Example II-21, 4-(8-Cyclopentyl-7-oxo-7,8-dihydro-pyrido[2,3-d]pyrimidin-2-ylamino)-piperidine-1-carboxylic acid isopropylamide] showed an IC50 (JNK1α1/SAP1α, Active) of 200 to 1000 nM and an IC50 [1] of 200 to 1000 nM.

With O=C(NC1CCCC1)N[C@H]1CC[C@H](Nc2ncc3ccc(=O)[nH]c3n2)CC1 [Example II-28] the IC50 (JNK1α1/SAP1α, Active) was 200 to 1000 nM and the IC50 [1] was 200 to 1000 nM.

Cn1c(=O)ccc2cnc(N[C@H]3CC[C@H](O)CC3)nc21 [Example II-29, Trans 2-((4-hydroxycyclohexyl)amino)-8-methylpyrido[2,3-d]pyrimidin-7(8H)-one] was tested, and the IC50 (JNK1α1/SAP1α, Active) was less than 200 nM and the IC50 [1] was less than 200 nM.

In the case of c1cc2cnc(NC3CCNCC3)nc2nc1C1CC1 [Example II-40, 7-cyclopropyl-N-(piperidin-4-yl)pyrido[2,3-d]pyrimidin-2-amine], the IC50 (JNK1α1/SAP1α, Active) is reported as greater than 1000 nM.

CCNC(=O)N1CCC(Nc2ncc3ccc(C4CC4)nc3n2)CC1 [Example II-42, 4-((7-cyclopropylpyrido[2,3-d]pyrimidin-2-yl)amino)-N-ethylpiperidine-1-carboxamide] gave an IC50 (JNK1α1/SAP1α, Active) greater than 1000 nM.

Compound c1cc2cnc(NC3CCNCC3)nc2nc1N1CCCC1 [Example II-49, N-(piperidin-4-yl)-7-(pyrrolidin-1-yl)pyrido[2,3-d]pyrimidin-2-amine] has an IC50 (JNK1α1/SAP1α, Active) greater than 1000 nM.

Compound Cc1ccc(-c2ncn(-c3ccc(Nc4nccc(-c5cccc(N6CCOCC6)c5)n4)cc3)n2)cn1 [SR-3306, reference compound] has an EC50 (JNK2α2/SAPK1c, active) of 200 to 1000 nM.
